Laboratory results: US7179831B2, “5-[3-(4-benzyloxyphenylthio)-fur-2-yl]-imidazolidin-2, 4-dione and analogues as inhibitors of macrophage elastase” (Quest Pharmaceutical Services, priority 2004, dated 2007)
pIC50: −log10 of the molar value.

What was measured:
Format in all cases: biochemical
Settings in all cases: recombinant human active domain, substrate 4 uM, room temperature
MMP-13 = molecular target: T1, MMP-13 (Homo sapiens, UniProt P45452); test: MMP inhibitory assay, fluorescent substrate, MMP-13
T1 construct: All the enzymes are recombinant human active domains from E. coli (Biomol); purchased Biomol; host or cells: E. coli
Description: (§1) The enzymatic activities of MMPs were assayed according to manufacture protocols (Biomol Reseaerch Laboratory, Inc. E-mail: info@biomol.com). All the enzymes are recombinant human active domains from E. coli (Biomol). The fluorescent substrate has the sequence of (7-methoxycoumarin-4-yl) acetyl-Pro-Leu-Gly-Leu-N-3-(2,4-dinitrophenyl)-L-α,β-diaminopropionyl-Ala-Arg-NH2.AcOH. All the assays were conducted at room temperature with 96 well flat bottom black plate (Nalge Nunc International, Catalog number, 465200). Briefly, certain amount of enzyme in 89 ul of assay buffer (50 mM Hepes, 10 mM CaCl2, 0.05% Brij 35, pH 7.5) was incubated with (7 concentration per set) or without inhibitor (in 1 ul of DMSO, or 1 ul DMSO only) for 20 min. Then the enzymatic reaction was initiated by the addition of the substrate (40 uM in 10 ul of assay buffer and the final concentration of the substrate is 4 uM). The activity was determined by measuring the fluorescence at Ex/Em=328 nm/393 nm and it was linear within 2 hrs. The fluorescence was read at 0 and 20 or 40 min. The reading at 0 time would be considered as the background and subtracted from the final reading. The IC50 was obtained by plotting the fluorescences versus the concentrations of the inhibitors of each assay with Prism software. […] Mechanism studies reveal that the inhibitors are competitive. For competitive inhibitor: Ki=IC50/(1+[S]/Km)

MMP-7 = molecular target: T2, MMP-7 (Homo sapiens, UniProt P09237); test: MMP inhibitory assay, fluorescent substrate, MMP-7
T2 construct: All the enzymes are recombinant human active domains from E. coli (Biomol); purchased Biomol; host or cells: E. coli
T2 sequence (P09237 95-267): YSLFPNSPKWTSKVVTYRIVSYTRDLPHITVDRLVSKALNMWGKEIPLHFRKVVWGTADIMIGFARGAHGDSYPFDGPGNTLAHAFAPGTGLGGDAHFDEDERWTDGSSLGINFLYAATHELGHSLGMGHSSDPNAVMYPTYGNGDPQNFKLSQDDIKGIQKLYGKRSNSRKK
Description: as §1

MMP-12 = molecular target: T3, MMP-12 (Homo sapiens, UniProt P39900); test: MMP inhibitory assay, fluorescent substrate, MMP-12
T3 construct: All the enzymes are recombinant human active domains from E. coli (Biomol); purchased Biomol; host or cells: E. coli
T3 sequence (P39900 106-263 limits assumed): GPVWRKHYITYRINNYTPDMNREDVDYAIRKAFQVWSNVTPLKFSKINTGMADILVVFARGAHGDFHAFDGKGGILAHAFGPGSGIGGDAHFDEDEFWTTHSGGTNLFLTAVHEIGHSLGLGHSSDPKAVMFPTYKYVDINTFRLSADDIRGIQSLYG
Description: as §1
In the assay conditions, [S](4 uM) is smaller than Km (20 uM for MMP-12). So Ki equal to IC50/1.2, which is little smaller than IC50, or roughly equal to IC50.

MMP-3 = molecular target: T4, MMP-3 (Homo sapiens, UniProt P08254); test: MMP inhibitory assay, fluorescent substrate, MMP-3
T4 construct: All the enzymes are recombinant human active domains from E. coli (Biomol); purchased Biomol; host or cells: E. coli
T4 sequence (P08254 100-272 limits assumed): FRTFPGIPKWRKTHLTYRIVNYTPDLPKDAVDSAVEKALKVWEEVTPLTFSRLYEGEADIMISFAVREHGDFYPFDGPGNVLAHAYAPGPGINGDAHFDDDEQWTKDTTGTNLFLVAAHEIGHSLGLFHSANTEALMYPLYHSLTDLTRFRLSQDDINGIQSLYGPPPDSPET
Description: as §1

MMP-2 = molecular target: T5, MMP-2 (Homo sapiens, UniProt P08253); test: MMP inhibitory assay, fluorescent substrate, MMP-2
T5 construct: All the enzymes are recombinant human active domains from E. coli (Biomol); purchased Biomol; host or cells: E. coli
T5 sequence (P08253 110-446 limits assumed): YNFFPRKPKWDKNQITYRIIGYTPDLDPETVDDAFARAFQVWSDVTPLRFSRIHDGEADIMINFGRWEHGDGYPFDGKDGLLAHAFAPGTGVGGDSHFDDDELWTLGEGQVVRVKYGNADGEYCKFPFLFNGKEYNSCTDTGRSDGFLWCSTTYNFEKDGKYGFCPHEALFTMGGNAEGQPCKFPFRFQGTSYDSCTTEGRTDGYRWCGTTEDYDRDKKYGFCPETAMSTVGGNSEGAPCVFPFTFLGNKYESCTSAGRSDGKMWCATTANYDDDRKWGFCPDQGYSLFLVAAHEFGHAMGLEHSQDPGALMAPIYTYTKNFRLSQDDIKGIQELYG
Description: as §1

MMP-1 = molecular target: T6, MMP-1 (Homo sapiens, UniProt P03956); test: MMP inhibitory assay, fluorescent substrate, MMP-1
T6 construct: All the enzymes are recombinant human active domains from E. coli (Biomol); purchased Biomol; host or cells: E. coli
T6 sequence (P03956 100-269 limits assumed): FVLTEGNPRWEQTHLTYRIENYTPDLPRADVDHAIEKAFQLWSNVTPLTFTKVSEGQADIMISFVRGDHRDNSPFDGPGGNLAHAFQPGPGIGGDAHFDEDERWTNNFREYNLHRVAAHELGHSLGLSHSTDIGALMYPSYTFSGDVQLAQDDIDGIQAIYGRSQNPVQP
Description: as §1

MMP-9 = molecular target: T7, MMP-9 (Homo sapiens, UniProt P14780); test: MMP inhibitory assay, fluorescent substrate, MMP-9
T7 construct: All the enzymes are recombinant human active domains from E. coli (Biomol); purchased Biomol; host or cells: E. coli
T7 sequence (P14780 107-444 limits assumed): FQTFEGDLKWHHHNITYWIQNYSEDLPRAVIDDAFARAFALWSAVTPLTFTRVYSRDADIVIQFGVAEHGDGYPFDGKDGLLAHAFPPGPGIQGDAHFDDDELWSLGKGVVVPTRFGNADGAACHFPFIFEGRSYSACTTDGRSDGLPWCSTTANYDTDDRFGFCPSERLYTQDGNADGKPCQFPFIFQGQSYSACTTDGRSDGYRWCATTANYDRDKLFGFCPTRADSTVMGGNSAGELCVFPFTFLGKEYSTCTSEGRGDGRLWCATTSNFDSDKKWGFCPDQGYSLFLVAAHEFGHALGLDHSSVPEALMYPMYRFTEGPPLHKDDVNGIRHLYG
Description: as §1

| Structure (SMILES) | pIC50 (MMP-13) | pIC50 (MMP-7) | pIC50 (MMP-12) | pIC50 (MMP-3) | pIC50 (MMP-2) | pIC50 (MMP-1) | pIC50 (MMP-9) |
| --- | --- | --- | --- | --- | --- | --- | --- |
| O=C1NC(=O)C(c2occc2Sc2ccc(OCc3ccc(-c4ccccc4)cc3)cc2)N1 (stereo not drawn) [IVc, 5-{3-[4-(4-biphenylmethoxy)phenylthio]fur-2-yl}imidazoline-2,4-dione] | 6.15 | 5.98 | 6.88 | 4.44 | 5.76 | < 4.40 |  |
| COc1cccc(COc2ccc(Sc3ccoc3C3NC(=O)NC3=O)cc2)c1 (stereo not drawn) [IVe, 5-{3-[4-(3-Methoxybenzyloxy)phenylthio]fur-2-yl}imidazolidine-2,4-dione] | 5.61 | 4.56 | 7.72 | 5.44 | 5.70 | < 4.40 | 5.43 |
| O=C1NC(=O)C(c2occc2Sc2ccc(OCc3ccc(OCc4ccccc4)cc3)cc2)N1 (stereo not drawn) [IVb, 5-{3-[4-(4-Benzyloxybenzyloxy)phenylthio]fur-2-yl}imidazolidine-2,4-dione] | 6.47 | 5.73 | 7.08 | 6.42 | 5.93 | < 4.40 | 5.35 |
| O=C1NC(=O)C(c2occc2Sc2ccc(OCc3ccccc3)cc2)N1 (stereo not drawn) [IVa, 5-[3-(4-Benzoxyphenylthio)fur-2-yl]imidazoline-2,4-dione] | 5.97 | 4.20 | 7.89 | 5.68 | 6.35 | < 4.40 | 6.14 |
| COc1ccccc1COc1ccc(Sc2ccoc2C2NC(=O)NC2=O)cc1 (stereo not drawn) [IVf, 5-{3-[4-(2-Methoxybenzyloxy)phenylthio]fur-2-yl}imidazolidine-2,4-dione] | 4.93 |  | 6.69 |  | 3.63 | < 4.40 | 4.52 |
| COc1ccc(COc2ccc(Sc3ccoc3C3NC(=O)NC3=O)cc2)cc1 (stereo not drawn) [IVd, 5-{3-[4-(4-Methoxybenzyloxy)phenylthio]fur-2-yl}imidazolidine-2,4-dione] | 6.59 | 5.12 | 8.00 | 6.50 | 6.37 | < 4.40 | 6.13 |
| COc1cc(COc2ccc(Sc3ccoc3C3NC(=O)NC3=O)cc2)cc(OC)c1 (stereo not drawn) [IVg, 5-{3-[4-(3,5-dimethoxybenzoxy)phenylthio]fur-2yl}imidazoline-2,4-dione] | 4.77 |  | 6.58 | 5.10 |  | < 4.40 | 4.45 |

Second part, the compound after the results:

| pIC50 (MMP-13) | pIC50 (MMP-7) | pIC50 (MMP-12) | pIC50 (MMP-3) | pIC50 (MMP-2) | pIC50 (MMP-1) | pIC50 (MMP-9) | Structure (SMILES) |
| --- | --- | --- | --- | --- | --- | --- | --- |
| 6.11 | 3.17 | 7.66 | 6.53 | 5.99 | < 4.40 | 5.84 | O=C1NC(=O)C(c2occc2Sc2ccc(OCc3cccc(Cl)c3)cc2)N1 (stereo not drawn) [IVi, 5-{3-[4-(3-Chlorobenzyloxy)phenylthio]fur-2-yl}imidazolidine-2,4-dione] |
| 5.69 |  | 7.47 | 5.48 | 5.67 | < 4.40 | 5.54 | O=C1NC(=O)C(c2occc2Sc2ccc(OCc3cccc(C(F)(F)F)c3)cc2)N1 (stereo not drawn) [IVq, 5-{3-[4-(3-Trifluoromethyl-benzyloxy)phenylthio]fur-2yl}imidazolidine-2,4-dione] |
| 5.37 |  | 7.38 | 5.39 | 5.15 | < 4.40 | 5.68 | Cc1ccccc1COc1ccc(Sc2ccoc2C2NC(=O)NC2=O)cc1 (stereo not drawn) [IVp, 5-{3-[4-(2-Methyl-benzyloxy)phenylthio]fur-2-yl}imidazolidine-2,4-dione] |
| 6.19 | 4.51 | 7.82 | 6.23 | 6.21 | < 4.40 | 6.33 | Cc1ccc(COc2ccc(Sc3ccoc3C3NC(=O)NC3=O)cc2)cc1 (stereo not drawn) [IVk, 5-{3-[4-(4-Methylbenzyloxy)phenylthio]fur-2-yl}imidazolidine-2,4-dione] |
| 5.71 | 4.33 | 7.96 | 5.87 | 5.95 | < 4.40 | 5.53 | Cc1cccc(COc2ccc(Sc3ccoc3C3NC(=O)NC3=O)cc2)c1 (stereo not drawn) [IVo, 5-{3-[4-(3-Methyl-benzyloxy)phenylthio]fur-2-yl}imidazolidine-2,4-dione] |
| 6.48 | 5.13 | 8.15 | 6.80 | 6.63 | < 4.40 | 6.59 | O=C1NC(=O)C(c2occc2Sc2ccc(OCc3ccc(Cl)cc3)cc2)N1 (stereo not drawn) [IVh, 5-{3-[4-(4-Chlorobenzyloxy)phenylthio]fur-2-yl}imidazolidine-2,4-dione] |
| 5.62 |  | 7.24 | 5.96 | 5.73 | < 4.40 | 5.95 | O=C1NC(=O)C(c2occc2Sc2ccc(OCc3ccccc3Cl)cc2)N1 (stereo not drawn) [IVj, 5-{3-[4-(2-Chlorobenzyloxy)phenylthio]fur-2-yl}imidazolidine-2,4-dione] |
